Drawing on patent US9650339B2, “Inhibitors of histone demethylases” (Gilead Sciences, Inc., priority 2013, dated 2017), this text covers IC50 for 3 compounds.

What all share (format): cell-based
One assay has as its target T1, KDM4A (Homo sapiens, UniProt O75164).
T1 construct: Full length; host or cells: U2OS
T1 sequence (O75164 1-1064): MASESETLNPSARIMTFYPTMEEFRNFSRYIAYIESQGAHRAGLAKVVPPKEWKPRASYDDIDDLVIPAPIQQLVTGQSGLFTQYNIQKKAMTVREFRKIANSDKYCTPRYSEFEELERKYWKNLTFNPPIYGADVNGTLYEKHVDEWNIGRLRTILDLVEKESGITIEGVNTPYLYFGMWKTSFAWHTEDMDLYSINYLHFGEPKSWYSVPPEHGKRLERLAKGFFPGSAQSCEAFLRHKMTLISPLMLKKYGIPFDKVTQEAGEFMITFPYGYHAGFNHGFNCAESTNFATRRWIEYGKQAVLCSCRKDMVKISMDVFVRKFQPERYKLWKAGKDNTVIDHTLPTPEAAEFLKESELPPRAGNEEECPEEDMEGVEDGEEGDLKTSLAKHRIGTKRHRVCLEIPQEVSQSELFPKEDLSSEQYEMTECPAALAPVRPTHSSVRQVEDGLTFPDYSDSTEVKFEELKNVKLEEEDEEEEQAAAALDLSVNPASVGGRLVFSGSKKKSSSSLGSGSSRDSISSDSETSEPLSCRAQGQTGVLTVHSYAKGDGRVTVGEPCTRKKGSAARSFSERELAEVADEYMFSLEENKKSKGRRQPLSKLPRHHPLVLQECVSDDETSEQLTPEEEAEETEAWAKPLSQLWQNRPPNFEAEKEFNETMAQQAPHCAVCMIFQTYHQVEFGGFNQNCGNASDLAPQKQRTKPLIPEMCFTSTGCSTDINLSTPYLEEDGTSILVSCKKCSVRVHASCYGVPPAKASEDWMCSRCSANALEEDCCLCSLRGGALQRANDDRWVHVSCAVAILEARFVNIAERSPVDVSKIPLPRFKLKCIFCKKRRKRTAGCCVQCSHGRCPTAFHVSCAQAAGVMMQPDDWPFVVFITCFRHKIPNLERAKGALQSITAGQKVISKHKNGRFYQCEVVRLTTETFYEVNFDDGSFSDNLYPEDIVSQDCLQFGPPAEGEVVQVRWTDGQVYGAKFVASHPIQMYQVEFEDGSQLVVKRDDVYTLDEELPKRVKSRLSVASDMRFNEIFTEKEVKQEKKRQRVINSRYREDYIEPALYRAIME
The assay can be described thus: Histone lysine demethylase immunofluorescence assay, U2OS cells transfected with KDM4A. The conditions noted are these: U2OS cells transfected with pCMVHA KDM4A; mark detected H3K9me3; 20 hours. The procedure: (§1) U2OS cells were seeded 24 hours before transfection. Transfection was performed with Fugene HD transfection reagent as recommended by the manufacturer. 6 hours after transfection, the cells were harvested and seeded into multi well plates into media containing compound. The media used was DMEM containing 10% FBS and pen/strep. 20 hours after incubation of cells with compounds, the cells were washed in PBS, harvested by fixation with formaldehyde 4% aqueous solution, and washed in PBS. Subsequently, the cells were permeabilized in PBS with 0.2% Triton X-100 for. Blocking was performed in PBS with 0.2% Triton X-100 and 5% FBS. The cells were incubated with primary antibodies in blocking solution over night at 4° C. The primary antibodies used in the assays were HA.11 (Covance, MMS-101P) and the antibody detecting the mark specified in the table below. After incubation with primary antibodies, the cells were washed with PBS, incubated with secondary antibodies (Alexa fluor 594 goat anti rabbit IgG, Invitrogen, A11012; Alexa flour 488 donkey anti mouse IgG, Invitrogen, A21202) and Hoechst, (Sigma, 33342) in blocking solution, and washed again with PBS. Finally, PBS was added and high throughput imaging and analysis were performed by an IN Cell Analyzer 1000 (GE Healthcare). The robot software analyzed individual cells and divided these into HA+ (transfected cells) and HA− (non-transfected cells). The IC50 values were based on an average measure of the staining of the mark specified in the table below in the transfected cells.

The target in a further assay is T2, KDM2A (Homo sapiens, UniProt Q9Y2K7).
T2 construct: Full length; host or cells: U2OS
T2 sequence (Q9Y2K7 1-1162): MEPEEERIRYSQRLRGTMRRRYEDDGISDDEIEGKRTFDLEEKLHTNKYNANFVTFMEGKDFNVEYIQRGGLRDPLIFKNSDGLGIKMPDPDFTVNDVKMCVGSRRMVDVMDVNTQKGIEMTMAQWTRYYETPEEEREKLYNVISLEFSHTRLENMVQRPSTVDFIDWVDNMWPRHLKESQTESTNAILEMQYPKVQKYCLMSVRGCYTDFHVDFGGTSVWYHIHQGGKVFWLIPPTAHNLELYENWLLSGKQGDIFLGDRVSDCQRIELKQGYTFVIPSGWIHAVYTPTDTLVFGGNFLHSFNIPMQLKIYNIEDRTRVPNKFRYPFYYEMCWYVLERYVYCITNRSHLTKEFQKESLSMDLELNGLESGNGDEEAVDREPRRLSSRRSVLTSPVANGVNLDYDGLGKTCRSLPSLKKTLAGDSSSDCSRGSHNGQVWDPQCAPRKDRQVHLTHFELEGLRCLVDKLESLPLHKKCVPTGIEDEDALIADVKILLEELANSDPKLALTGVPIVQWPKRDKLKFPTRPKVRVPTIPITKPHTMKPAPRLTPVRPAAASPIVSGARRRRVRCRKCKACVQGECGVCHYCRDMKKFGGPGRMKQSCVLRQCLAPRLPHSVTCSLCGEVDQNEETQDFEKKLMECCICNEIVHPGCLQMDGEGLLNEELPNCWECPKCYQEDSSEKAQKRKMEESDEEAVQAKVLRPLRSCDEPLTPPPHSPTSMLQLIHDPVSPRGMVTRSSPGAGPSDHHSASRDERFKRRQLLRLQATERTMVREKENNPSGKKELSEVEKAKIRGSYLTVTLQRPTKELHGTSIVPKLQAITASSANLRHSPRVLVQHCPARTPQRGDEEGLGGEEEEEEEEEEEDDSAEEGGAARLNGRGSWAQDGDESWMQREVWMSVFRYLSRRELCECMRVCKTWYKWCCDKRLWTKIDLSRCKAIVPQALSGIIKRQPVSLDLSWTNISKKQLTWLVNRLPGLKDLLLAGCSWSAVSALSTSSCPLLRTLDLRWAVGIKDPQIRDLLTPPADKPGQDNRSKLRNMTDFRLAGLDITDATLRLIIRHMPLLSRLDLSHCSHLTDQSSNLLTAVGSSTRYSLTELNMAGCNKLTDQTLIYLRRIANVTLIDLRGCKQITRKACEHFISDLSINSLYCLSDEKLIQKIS
Nature of the assay: Histone lysine demethylase immunofluorescence assay, U2OS cells transfected with KDM2A. The conditions noted are these: U2OS cells transfected with pCMVHA KDM2A; mark detected H3K36me2; 20 hours. The procedure:
as §1

The next assay deals with T3, KDM6B (Homo sapiens, UniProt O15054).
T3 construct: (a.a. 1026-1682); host or cells: U2OS
Nature of the assay: Histone lysine demethylase immunofluorescence assay, U2OS cells transfected with KDM6B. The conditions noted are these: U2OS cells transfected with pCMVHA KDM6B; mark detected H3K27me2; 20 hours. The procedure:
as §1

Each structure is given as a SMILES string.

T3 sequence (O15054 1026-1682 isoform O15054-1): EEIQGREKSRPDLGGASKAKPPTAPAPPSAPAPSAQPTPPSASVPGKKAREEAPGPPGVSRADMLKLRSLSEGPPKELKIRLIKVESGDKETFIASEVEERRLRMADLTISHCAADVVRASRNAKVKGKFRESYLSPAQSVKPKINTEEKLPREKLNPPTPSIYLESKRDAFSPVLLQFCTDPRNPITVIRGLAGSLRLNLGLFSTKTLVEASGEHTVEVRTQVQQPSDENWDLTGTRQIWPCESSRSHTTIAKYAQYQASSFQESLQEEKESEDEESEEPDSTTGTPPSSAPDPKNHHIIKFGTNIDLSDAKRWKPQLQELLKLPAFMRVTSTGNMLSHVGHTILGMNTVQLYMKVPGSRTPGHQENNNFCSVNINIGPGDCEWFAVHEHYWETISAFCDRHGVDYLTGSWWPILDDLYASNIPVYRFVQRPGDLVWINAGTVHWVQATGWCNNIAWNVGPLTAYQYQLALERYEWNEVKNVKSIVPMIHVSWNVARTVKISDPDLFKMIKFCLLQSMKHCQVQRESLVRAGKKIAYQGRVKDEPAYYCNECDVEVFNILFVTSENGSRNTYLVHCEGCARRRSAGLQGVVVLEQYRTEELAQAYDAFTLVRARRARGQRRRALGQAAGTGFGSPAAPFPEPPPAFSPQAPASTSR

Consider `CCN(CCN(C)C)C(=O)CNCc1cc(C2OCC3(CC3)CN2C(=O)C(F)(F)F)ccn1` (stereo not shown) [Compound 91, N-[2--(dimethylamino)-ethyl]-N-ethyl-2-[({4-[7-(trifluoroacetyl)-5-oxa-7-azaspiro[2.5]-octan-6-yl]pyridin-2-yl}methyl)amino]-acetamide], for which the 50% inhibitory concentration (IC50) at KDM4A was < 250 nM; on KDM2A, > 2500 nM; against KDM6B, > 2500 nM.

As for `CCN(CCN(C)C)C(=O)CNCc1cc(CNC(=O)C(F)(F)F)ccn1` [Compound 25, N-[(2-{[({[2-(dimethylamino)ethyl]-(ethyl)carbamoyl}-methyl)amino]methyl}-pyrtdin-4-yl)methyl]-2,2,2-trifluoroacetamide], the values for the IC50 against KDM4A, against KDM2A and against KDM6B were 250 to 2500 nM, > 2500 nM and > 2500 nM, respectively.

As for `CCN(CCC#N)C(=O)CNCc1cc(/C=N/CCO)ccn1` [Compound 94, N-(2-cyanoethyl)-N-ethyl-2-[({4-[[(2-hydroxyethyl)imino]-methyl]pyridin-2-yl}methyl)amino]-acetamide], the IC50 on KDM2A is > 2500 nM.

As a reminder, the IC50 is the concentration that inhibits the measured activity by half. Low readings indicate inhibition by little substance, high ones a need for much substance.
